{"source": "patent US20140005163A1", "about": "(NOVARTIS AG, priority 2010, published 2014)", "key": {"mTOR": {"molecular_target": "T1, mTOR (Homo sapiens, UniProt P42345)", "T1 construct": "purchased Invitrogen Corporation (Carlsbad/CA, USA) PV4753", "T1 sequence (P42345 1360-2549 limits assumed)": "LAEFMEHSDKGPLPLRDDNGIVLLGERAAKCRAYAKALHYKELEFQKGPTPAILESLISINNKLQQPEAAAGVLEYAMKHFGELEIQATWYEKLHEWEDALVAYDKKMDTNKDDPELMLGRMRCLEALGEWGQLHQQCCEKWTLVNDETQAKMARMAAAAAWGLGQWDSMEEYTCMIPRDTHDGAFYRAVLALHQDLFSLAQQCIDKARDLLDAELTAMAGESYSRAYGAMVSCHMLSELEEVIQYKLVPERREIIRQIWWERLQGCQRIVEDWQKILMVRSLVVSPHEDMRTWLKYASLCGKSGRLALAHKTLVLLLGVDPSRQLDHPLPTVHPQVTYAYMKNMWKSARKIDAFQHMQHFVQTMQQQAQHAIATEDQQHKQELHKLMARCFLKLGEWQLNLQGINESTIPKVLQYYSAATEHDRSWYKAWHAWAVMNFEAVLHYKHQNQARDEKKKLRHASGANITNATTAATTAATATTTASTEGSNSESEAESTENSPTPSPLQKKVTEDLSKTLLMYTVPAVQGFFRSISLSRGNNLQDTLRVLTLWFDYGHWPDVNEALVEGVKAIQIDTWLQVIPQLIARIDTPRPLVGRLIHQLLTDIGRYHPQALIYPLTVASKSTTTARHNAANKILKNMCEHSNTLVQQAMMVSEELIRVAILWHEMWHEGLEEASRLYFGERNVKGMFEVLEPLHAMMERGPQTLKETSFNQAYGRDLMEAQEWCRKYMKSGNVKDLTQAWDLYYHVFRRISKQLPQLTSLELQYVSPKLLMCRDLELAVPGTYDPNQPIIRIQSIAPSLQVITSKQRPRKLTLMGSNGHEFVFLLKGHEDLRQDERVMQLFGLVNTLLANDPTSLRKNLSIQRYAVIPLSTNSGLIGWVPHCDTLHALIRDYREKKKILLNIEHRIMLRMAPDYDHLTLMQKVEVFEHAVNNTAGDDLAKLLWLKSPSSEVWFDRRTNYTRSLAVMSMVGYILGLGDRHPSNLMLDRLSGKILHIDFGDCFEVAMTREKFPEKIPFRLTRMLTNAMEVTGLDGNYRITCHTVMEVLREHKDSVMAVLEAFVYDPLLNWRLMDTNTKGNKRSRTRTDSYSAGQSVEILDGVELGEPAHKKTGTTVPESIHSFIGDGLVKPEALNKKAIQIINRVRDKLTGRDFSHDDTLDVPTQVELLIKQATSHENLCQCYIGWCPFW", "assay": "Biochemical assay for m-TOR by TR-FRET", "conditions": "8 μM ATP, 400 nM GFP-4EBP1, 0.5 nM mTOR", "in_short": "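TR-FRET detection of pThr46 on GFP-4EBP1 (400 nM final) using Tb3+-labelled antibody (0.5 nM), added with EDTA to stop reactions. Reactions ran at rt with 0.5 nM mTOR and 8 μM ATP (final) in HEPES pH 7.5 buffer containing 10 mM MnCl2.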"}, "Solubility at pH 6.8": {"assay": "Solubility at pH 6.8", "assay_type": "physicochemical", "conditions": "pH 6.8, aqueous buffer, thermodynamic from solid; read-out: solubility", "in_short": "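Following the procedure of Zhou et al. (2007), compound solubility was determined at pH 6.8.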"}, "[1]": {"system": "S6 Ribosomal Protein phosphorylation Ser235/236 in TSC1 null mouse embryo fibroblast (MEF) cells", "assay": "Reverse protein array assay, S6 Ribosomal Protein phosphorylation Ser235/236 in TSC1 null MEF cells", "assay_type": "cell-based", "conditions": "1 h, pS6 ribosomal protein Ser235/236, 60 minutes incubation, read-out: p-S6 IC50", "in_short": "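TSC1−/− MEFs, seeded and held ≥20 h at 37 °C/5% CO2, were exposed to 8-step serial compound dilutions (0.02% DMSO final; DMSO vehicle control) for 60 min at 37 °C. Cells were then lysed on ice for 10 min and lysates spotted onto reverse protein array chips.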"}}, "data": [{"smiles": "CCNc1cc(-c2ccc3ncc4c(c3c2)n(-c2c(C)nn(C)c2C)c(=O)n4C)cnc1Cl", "note": "[Example 153.1, 8-(6-Chloro-5-ethylamino-pyridin-3-yl)-3-methyl-1-(1,3,5-trimethyl-1H-pyrazol-4-yl)-1,3-dihydro-imidazo[4,5-c]quinolin-2-one]", "values": [{"measurement": "IC50", "setting": "mTOR", "value": 98, "unit": "nM"}, {"measurement": "solubility", "setting": "Solubility at pH 6.8", "value": 6, "unit": "µg/mL"}, {"measurement": "IC50", "setting": "[1]", "value": 4, "unit": "nM"}]}, {"smiles": "CCNc1cc(-c2ccc3ncc4c(c3c2)n(-c2cn(C(C)C)nc2C)c(=O)n4C)cnc1CO", "note": "[Example 155.3, 8-(5-Ethylamino-6-hydroxymethyl-pyridin-3-yl)-1-(1-isopropyl-3-methyl-1H-pyrazol-4-yl)-3-methyl-1,3-dihydro-imidazo[4,5-c]quinolin-2-one]", "values": [{"measurement": "IC50", "setting": "mTOR", "value": 5, "unit": "nM"}, {"measurement": "solubility", "setting": "Solubility at pH 6.8", "value": "> 472", "unit": "µg/mL"}, {"measurement": "IC50", "setting": "[1]", "value": 1, "unit": "nM"}]}, {"smiles": "CCNc1cc(-c2ccc3ncc4c(c3c2)n(-c2c(C)nn(C)c2C)c(=O)n4C)cnc1CO", "note": "[Example 155.4, 8-(5-Ethylamino-6-hydroxymethyl-pyridin-3-yl)-3-methyl-1-(1,3,5-trimethyl-1H-pyrazol-4-yl)-1,3-dihydro-imidazo[4,5-c]quinolin-2-one]", "values": [{"measurement": "IC50", "setting": "mTOR", "value": 22, "unit": "nM"}, {"measurement": "solubility", "setting": "Solubility at pH 6.8", "value": 62, "unit": "µg/mL"}, {"measurement": "IC50", "setting": "[1]", "value": 18, "unit": "nM"}]}, {"smiles": "CCNc1cc(-c2ccc3ncc4c(c3c2)n(-c2cn(CC)nc2C)c(=O)n4C)cnc1COC", "note": "[Example 157, 8-(5-Ethylamino-6-methoxymethyl-pyridin-3-yl)-1-(1-ethyl-3-methyl-1H-pyrazol-4-yl)-3-methyl-1,3-dihydro-imidazo[4,5-c]quinolin-2-one]", "values": [{"measurement": "IC50", "setting": "mTOR", "value": 10, "unit": "nM"}, {"measurement": "solubility", "setting": "Solubility at pH 6.8", "value": "> 472", "unit": "µg/mL"}, {"measurement": "IC50", "setting": "[1]", "value": 1, "unit": "nM"}]}, {"smiles": "CNc1cc(-c2ccc3ncc4c(c3c2)n(-c2cn(C)nc2C)c(=O)n4C)cnc1COC", "note": "[Example 159, 1-(1,3-Dimethyl-1H-pyrazol-4-yl)-8-(6-methoxymethyl-5-methylamino-pyridin-3-yl)-3-methyl-1,3-dihydro-imidazo[4,5-c]quinolin-2-one]", "values": [{"measurement": "IC50", "setting": "mTOR", "value": 12, "unit": "nM"}, {"measurement": "solubility", "setting": "Solubility at pH 6.8", "value": "> 444", "unit": "µg/mL"}, {"measurement": "IC50", "setting": "[1]", "value": 8, "unit": "nM"}]}, {"smiles": "CCNc1cc(-c2ccc3ncc4c(c3c2)n(-c2cn(C)nc2C)c(=O)n4C)cnc1CC", "note": "[Example 161, 1-(1,3-Dimethyl-1H-pyrazol-4-yl)-8-(6-ethyl-5-ethylamino-pyridin-3-yl)-3-methyl-1,3-dihydro-imidazo[4,5-c]quinolin-2-one]", "values": [{"measurement": "IC50", "setting": "mTOR", "value": "< 3", "unit": "nM"}, {"measurement": "solubility", "setting": "Solubility at pH 6.8", "value": 433, "unit": "µg/mL"}, {"measurement": "IC50", "setting": "[1]", "value": 2, "unit": "nM"}]}, {"smiles": "CCOCc1cc(-c2ccc3ncc4c(c3c2)n(-c2cn(C)nc2C)c(=O)n4C)cnc1N", "note": "[Example 166.1, 8-(6-Amino-5-ethoxymethyl-pyridin-3-yl)-1-(1,3-dimethyl-1H-pyrazol-4-yl)-3-methyl-1,3-dihydro-imidazo[4,5-c]quinolin-2-one]", "values": [{"measurement": "IC50", "setting": "mTOR", "value": 33, "unit": "nM"}, {"measurement": "solubility", "setting": "Solubility at pH 6.8", "value": 33, "unit": "µg/mL"}, {"measurement": "IC50", "setting": "[1]", "value": 3, "unit": "nM"}]}, {"smiles": "Cn1cc(-n2c(=O)n(C)c3cnc4ccc(-c5cnc(N)c(CO)c5)cc4c32)c(Cl)n1", "note": "[Example 169.3, 8-(6-Amino-5-hydroxymethyl-pyridin-3-yl)-1-(3-chloro-1-methyl-1H-pyrazol-4-yl)-3-methyl-1,3-dihydro-imidazo[4,5-c]quinolin-2-one]", "values": [{"measurement": "IC50", "setting": "mTOR", "value": "< 3", "unit": "nM"}, {"measurement": "solubility", "setting": "Solubility at pH 6.8", "value": 10, "unit": "µg/mL"}, {"measurement": "IC50", "setting": "[1]", "value": 1.32, "unit": "nM"}]}, {"smiles": "Cc1nn(CCO)cc1-n1c(=O)n(C)c2cnc3ccc(-c4cncc(N5CCOCC5)c4)cc3c21", "note": "[Example 175.3, 1-[1-(2-Hydroxy-ethyl)-3-methyl-1H-pyrazol-4-yl]-3-methyl-8-(5-morpholin-4-yl-pyridin-3-yl)-1,3-dihydro-imidazo[4,5-c]quinolin-2-one]", "values": [{"measurement": "IC50", "setting": "mTOR", "value": 19, "unit": "nM"}, {"measurement": "solubility", "setting": "Solubility at pH 6.8", "value": "> 486", "unit": "µg/mL"}, {"measurement": "IC50", "setting": "[1]", "value": 151, "unit": "nM"}]}, {"smiles": "CCN(C)c1cncc(-c2ccc3ncc4c(c3c2)n(-c2cn(C)nc2C)c(=O)n4C)c1", "note": "[Example 176, 1-(1,3-Dimethyl-1H-pyrazol-4-yl)-8-[5-(ethyl-methyl-amino)-pyridin-3-yl]-3-methyl-1,3-dihydro-imidazo[4,5-c]quinolin-2-one]", "values": [{"measurement": "IC50", "setting": "mTOR", "value": 15, "unit": "nM"}, {"measurement": "solubility", "setting": "Solubility at pH 6.8", "value": 59, "unit": "µg/mL"}, {"measurement": "IC50", "setting": "[1]", "value": 2, "unit": "nM"}]}, {"smiles": "Cc1nn(C)cc1-n1c(=O)n(C)c2cnc3ccc(-c4cncc(OC(F)F)c4)cc3c21", "note": "[Example 183, 8-(5-Difluoromethoxy-pyridin-3-yl)-1-(1,3-dimethyl-1H-pyrazol-4-yl)-3-methyl-1,3-dihydro-imidazo[4,5-c]quinolin-2-one]", "values": [{"measurement": "IC50", "setting": "mTOR", "value": "< 3", "unit": "nM"}, {"measurement": "solubility", "setting": "Solubility at pH 6.8", "value": 84, "unit": "µg/mL"}, {"measurement": "IC50", "setting": "[1]", "value": 1, "unit": "nM"}]}, {"smiles": "COc1cc(-c2ccc3ncc4c(c3c2)n(-c2cn(C)nc2C)c(=O)n4C)cnc1C", "note": "[Example 184, 1-(1,3-Dimethyl-1H-pyrazol-4-yl)-8-(5-methoxy-6-methyl-pyridin-3-yl)-3-methyl-1,3-dihydro-imidazo[4,5-c]quinolin-2-one]", "values": [{"measurement": "IC50", "setting": "mTOR", "value": 6, "unit": "nM"}, {"measurement": "solubility", "setting": "Solubility at pH 6.8", "value": 8, "unit": "µg/mL"}, {"measurement": "IC50", "setting": "[1]", "value": 5, "unit": "nM"}]}, {"smiles": "CCOc1cc(-c2ccc3ncc4c(c3c2)n(-c2cn(C)nc2C)c(=O)n4C)cnc1COC", "note": "[Example 197.1, 1-(1,3-Dimethyl-1H-pyrazol-4-yl)-8-(5-ethoxy-6-methoxymethyl-pyridin-3-yl)-3-methyl-1,3-dihydro-imidazo[4,5-c]quinolin-2-one]", "values": [{"measurement": "IC50", "setting": "mTOR", "value": 39, "unit": "nM"}, {"measurement": "solubility", "setting": "Solubility at pH 6.8", "value": 361, "unit": "µg/mL"}, {"measurement": "IC50", "setting": "[1]", "value": 7, "unit": "nM"}]}, {"smiles": "Cc1nn(CC(=O)N2CCC2)cc1-n1c(=O)n(C)c2cnc3ccc(-c4cncc(OC(C)C)c4)cc3c21", "note": "[Example 205, 1-[1-(2-Azetidin-1-yl-2-oxo-ethyl)-3-methyl-1H-pyrazol-4-yl]-8-(5-isopropoxy-pyridin-3-yl)-3-methyl-1,3-dihydro-imidazo[4,5-c]quinolin-2-one]", "values": [{"measurement": "IC50", "setting": "mTOR", "value": 22, "unit": "nM"}, {"measurement": "solubility", "setting": "Solubility at pH 6.8", "value": "> 512", "unit": "µg/mL"}, {"measurement": "IC50", "setting": "[1]", "value": 37, "unit": "nM"}]}, {"smiles": "Cc1nn(C)cc1-n1c(=O)[nH]c2cnc3ccc(-c4cnc(N(C)C)nc4)cc3c21", "note": "[Example 207, 8-(2-Dimethylamino-pyrimidin-5-yl)-1-(1,3-dimethyl-1H-pyrazol-4-yl)-1,3-dihydro-imidazo[4,5-c]quinolin-2-one]", "values": [{"measurement": "IC50", "setting": "mTOR", "value": 11, "unit": "nM"}, {"measurement": "solubility", "setting": "Solubility at pH 6.8", "value": 18, "unit": "µg/mL"}, {"measurement": "IC50", "setting": "[1]", "value": 22, "unit": "nM"}]}, {"smiles": "CCNc1cc(-c2ccc3ncc4c(c3c2)n(-c2c(C)nn(CCO)c2C)c(=O)n4C)cnc1C", "note": "[Example 210, 8-(5-Ethylamino-6-methyl-pyridin-3-yl)-1-[1-(2-hydroxy-ethyl)-3,5-dimethyl-1H-pyrazol-4-yl]-3-methyl-1,3-dihydro-imidazo[4,5-c]quinolin-2-one]", "values": [{"measurement": "IC50", "setting": "mTOR", "value": 40, "unit": "nM"}, {"measurement": "solubility", "setting": "Solubility at pH 6.8", "value": 445, "unit": "µg/mL"}, {"measurement": "IC50", "setting": "[1]", "value": 32, "unit": "nM"}]}, {"smiles": "CCOc1cc(-c2ccc3ncc4c(c3c2)n(-c2cn(CCO)nc2C)c(=O)n4C)cnc1C", "note": "[Example 211.2, 8-(5-Ethoxy-6-methyl-pyridin-3-yl)-1-[1-(2-hydroxy-ethyl)-3-methyl-1H-pyrazol-4-yl]-3-methyl-1,3-dihydro-imidazo[4,5-c]quinolin-2-one]", "values": [{"measurement": "IC50", "setting": "mTOR", "value": 11, "unit": "nM"}, {"measurement": "solubility", "setting": "Solubility at pH 6.8", "value": 3, "unit": "µg/mL"}, {"measurement": "IC50", "setting": "[1]", "value": 11, "unit": "nM"}]}, {"smiles": "Cc1nn(C)cc1-n1c(=O)n(C)c2cnc3ccc(-c4ccc(N5CC[C@@H](O)C5)nc4)cc3c21", "note": "[Example 212.1, 1-(1,3-Dimethyl-1H-pyrazol-4-yl)-8-[6-((R)-3-hydroxy-pyrrolidin-1-yl)-pyridin-3-yl]-3-methyl-1,3-dihydro-imidazo[4,5-c]quinolin-2-one]", "values": [{"measurement": "IC50", "setting": "mTOR", "value": 72, "unit": "nM"}, {"measurement": "solubility", "setting": "Solubility at pH 6.8", "value": 55, "unit": "µg/mL"}, {"measurement": "IC50", "setting": "[1]", "value": 7, "unit": "nM"}]}, {"smiles": "Cc1nn(C(C)C)cc1-n1c(=O)n(C)c2cnc3ccc(-c4cncc(C(C)(C)O)c4)cc3c21", "note": "[Example 215.1, 8-[5-(1-Hydroxy-1-methyl-ethyl)-pyridin-3-yl]-1-(1-isopropyl-3-methyl-1H-pyrazol-4-yl)-3-methyl-1,3-dihydro-imidazo[4,5-c]quinolin-2-one]", "values": [{"measurement": "IC50", "setting": "mTOR", "value": 35, "unit": "nM"}, {"measurement": "solubility", "setting": "Solubility at pH 6.8", "value": "> 457", "unit": "µg/mL"}, {"measurement": "IC50", "setting": "[1]", "value": 39, "unit": "nM"}]}]}
